Reference: patent US8623821B2, “Zymogen activators” (Genentech, Inc., priority 2011, dated 2014)
Entries after “also recorded” stand apart in the source; their conditions may differ. Where a SMILES comes first, the peptide text is derived from it. Bridges are numbered along the chain shown (N, C = ends).

What was measured:
scHGF β = biological target: T1, scHGF β (Homo sapiens, UniProt P14210, R494E); experiment: scHGF β activation/Met binding assay (biolayer interferometry); conditions: for Kd: peptide titration with 0.5 μM scHGF β, biotinylated Met ECD on sensor, ±stdev of n=3; for binding to scHGF β / activation of Met binding, in words: Met-coated sensor; for AC50: peptide-dependent activation of zHGF β binding to surface immobilized Met ECD, read-out: apparent activation constant (AC50)
T1 construct: the scHGF β-chain (residues Asn^479 to Ser^728) contains the R494E mutation; His-tag (C); made in house; host or cells: insect cells (pAcGP67 vector)
T1 sequence (P14210 479-728 R494E): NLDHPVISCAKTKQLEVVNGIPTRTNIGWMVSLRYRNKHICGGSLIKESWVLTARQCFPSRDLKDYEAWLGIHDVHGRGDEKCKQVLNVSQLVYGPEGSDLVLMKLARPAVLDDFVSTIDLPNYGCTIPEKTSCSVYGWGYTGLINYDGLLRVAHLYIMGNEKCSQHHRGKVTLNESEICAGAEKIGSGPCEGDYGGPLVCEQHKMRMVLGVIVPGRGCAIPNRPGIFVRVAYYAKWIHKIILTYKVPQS
T1 sequence (P08581 27-515 partner limits assumed): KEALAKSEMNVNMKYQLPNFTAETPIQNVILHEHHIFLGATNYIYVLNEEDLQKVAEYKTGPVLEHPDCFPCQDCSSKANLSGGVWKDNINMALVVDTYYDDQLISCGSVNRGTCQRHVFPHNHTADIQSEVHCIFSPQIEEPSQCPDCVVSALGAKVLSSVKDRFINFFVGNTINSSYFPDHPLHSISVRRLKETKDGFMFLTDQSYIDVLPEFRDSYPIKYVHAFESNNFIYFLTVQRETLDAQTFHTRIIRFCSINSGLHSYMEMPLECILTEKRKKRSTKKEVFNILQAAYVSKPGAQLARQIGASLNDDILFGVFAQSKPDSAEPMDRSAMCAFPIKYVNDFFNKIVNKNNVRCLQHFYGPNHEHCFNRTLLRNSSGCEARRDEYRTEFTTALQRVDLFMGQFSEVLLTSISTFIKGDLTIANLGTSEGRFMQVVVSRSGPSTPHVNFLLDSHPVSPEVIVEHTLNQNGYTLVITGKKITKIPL
Experimental: Met binding assays were carried out utilizing the OctetRed™ biolayer interferometry instrument (ForteBio, Inc.) as reported previously (Landgraf, K. E. et al. (2010) J Biol Chem 285: 40362-72). Biotinylated Met ECD (Sema/PSI-AviTag) was captured on the surface of streptavidin optical sensor tips (SA biosensors, ForteBio, Inc.), and transferred into buffer containing 0.5 μM scHGF β-chain variants in the presence of increasing concentration of indicated peptides. Association and dissociation reactions were monitored to ensure reversible binding between scHGF β and Met. Binding was quantified using the steady-state levels of surface response from the association reaction. Equilibrium constants were derived by least squares fitting of the titration data to a single-site binding equation. Errors reported are ±stdev of n=3 independent experiments.
Based on the finding that the consensus ZAPs contain features consistent with binding and inserting into the activation pocket, several related peptides were synthesized and utilized in a previously established scHGF β activation assay to assess their affinities and ability to active Met binding (Landgraf, K. E. et al. (2010) J Biol Chem 285: 40362-72). Since scHGF β can only weakly interact with the Met Sema-PSI domain compared to the active HGF β form, biolayer interferometry was used in the activation assay to measure the ability of a peptide to directly enhance the binding affinity of scHGF β to a streptavidin sensor surface coated with biotinylated Met (Landgraf, K. E. et al. (2010) J Biol Chem 285: 40362-72). Thus, titration of an activator peptide should result in a significant increase in the surface response signal due to enhanced scHGF β binding to Met.

scHGF = scHGF (Homo sapiens, UniProt P14210, R494E); experiment: BxPC-3 cell survival assay, peptide titrations in the presence of scHGF; format: cell-based; parameters: Full-length recombinant HGF proteins were expressed in 1-liter fermentation cultures of Chinese hamster ovary (CHO) cells; made in house; host or cells: CHO cells (scHGF); conditions: for activation of scHGF / cell survival, in words: BxPC-3 cells, peptide plus scHGF
Chain of scHGF (P14210 32-728 R494E): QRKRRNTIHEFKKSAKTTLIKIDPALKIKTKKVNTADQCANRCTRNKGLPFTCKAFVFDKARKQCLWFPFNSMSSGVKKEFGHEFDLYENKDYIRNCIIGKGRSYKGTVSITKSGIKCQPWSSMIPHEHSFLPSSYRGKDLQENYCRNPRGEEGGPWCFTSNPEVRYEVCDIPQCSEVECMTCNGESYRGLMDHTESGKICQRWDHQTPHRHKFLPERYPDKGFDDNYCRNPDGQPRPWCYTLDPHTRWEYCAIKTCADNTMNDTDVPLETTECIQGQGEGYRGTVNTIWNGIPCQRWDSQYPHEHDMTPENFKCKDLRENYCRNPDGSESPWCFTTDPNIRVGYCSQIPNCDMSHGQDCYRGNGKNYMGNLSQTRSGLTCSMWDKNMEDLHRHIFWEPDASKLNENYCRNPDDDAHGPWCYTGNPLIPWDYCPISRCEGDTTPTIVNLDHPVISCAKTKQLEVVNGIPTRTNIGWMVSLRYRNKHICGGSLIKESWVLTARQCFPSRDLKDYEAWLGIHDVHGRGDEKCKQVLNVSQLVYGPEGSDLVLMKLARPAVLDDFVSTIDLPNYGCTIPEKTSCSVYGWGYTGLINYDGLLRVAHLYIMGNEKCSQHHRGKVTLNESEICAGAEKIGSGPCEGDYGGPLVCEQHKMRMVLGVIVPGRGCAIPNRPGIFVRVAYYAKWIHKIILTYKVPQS
Experimental: BxPC-3 cells were obtained from ATCC and maintained in cell culture medium (RPMI, 10% FBS (Sigma), 50 U/ml penicillin/50 μg/ml streptomycin, 2 mM glutamine). For the survival assay, cells were plated at 10,000 cells/well in 96 well tissue culture plates (Falcon 353072) in 50 μl assay diluent (RPMI, 0.1% BSA (Sigma) 50 U/ml penicillin/50 μg/ml streptomycin, 2 mM glutamine). Cells were allowed to attach for 1-2 h in a 37° C. CO2 incubator. Human HGF proteins (HGF, scHGF or scHGF plus peptide titrations) were pre-incubated at room temperature in assay diluent. HGF/peptide mixtures were added to cells in microtiter plates in triplicate at 50 μl per well and plates were incubated at 37° C. in a CO2 incubator. Final concentrations of HGF variants were 400 ng/ml and peptide concentrations were titrated accordingly. After 72 h, 25 μl alamar Blue (Serotec, BUF012B) was added to each well and incubate an additional 2 h at 37° C. in a CO2 incubator. Plates were agitated vigorously for 10 min at room temperature, and fluorescence was read at 530-590 nm in a fluorescent plate reader.
Using Bx-PC3 cells, peptide titrations in the presence of scHGF were performed and observed robust activation was seen of scHGF signaling through Met, which reached levels equivalent HGF-induced signaling.
Cellular assays were used to address whether the optimized ZAPtides act as allosteric activators of pro-HGF and stimulate Met signaling in biologically relevant settings of cell survival and migration. […] Importantly, ZAPtides required the presence of scHGF as well as induced […] cell survival that was antagonized by an HGF-blocking anti-Met antibody, each confirming Met pathway selectivity.

| Molecule | Kd (scHGF β) [µM] | binding to scHGF β / activation of Met binding, in words (scHGF β) | activation of scHGF / cell survival, in words (scHGF) | further results |
| --- | --- | --- | --- | --- |
| CC[C@H](C)[C@H](N)C(=O)N[C@H](C(=O)NCC(=O)NCC(=O)N[C@@H](CO)C(=O)N1CCC[C@H]1C(=O)N[C@@H](Cc1ccc(O)cc1)C(=O)N[C@@H](Cc1c[nH]c2ccccc12)C(=O)N[C@@H](CCSC)C(=O)N[C@@H](CC(=O)O)C(=O)N[C@@H](CCCNC(=N)N)C(=O)N[C@@H](CCC(=O)O)C(=O)N[C@@H](CCC(=O)O)C(=O)N[C@@H](CO)C(=O)N[C@H](C(N)=O)[C@@H](C)CC)[C@@H](C)CC [ZAP.03S, I I G G S P Y W M D R E E S I] (H-IIGGSPYWMDREESI-NH2; N-terminus assumed) | 59 ± 30 | significantly impaired |  |  |
| G I G G C P Y W M D R E E C I (GIGGCPYWMDREECI) [ZAP.03G] |  | significantly impairs its binding; also recorded: significantly impaired | dramatically hindered its activity |  |
| CC[C@H](C)[C@H](N)C(=O)N[C@H](C(=O)NCC(=O)NCC(=O)N[C@H]1CSSC[C@@H](C(=O)N[C@H](C(N)=O)[C@@H](C)CC)NC(=O)[C@H](CCC(=O)O)NC(=O)[C@H](CCC(=O)O)NC(=O)[C@H](CCCNC(=N)N)NC(=O)[C@H](CC(=O)O)NC(=O)[C@H](CCSC)NC(=O)[C@H](Cc2c[nH]c3ccccc23)NC(=O)[C@H](Cc2ccc(O)cc2)NC(=O)[C@@H]2CCCN2C1=O)[C@@H](C)CC [ZAP.03] (H-IIGGCPYWMDREECI-NH2; disulfide 5-14) | 0.3 ± 0.1 |  |  | AC50 (scHGF β): 0.3 µM |
| I V G D Y P W W M D V (IVGDYPWWMDV) [IVGD.14] |  | no detectable binding |  |  |
| CC[C@H](C)[C@H](N)C(=O)N[C@H](C(=O)NCC(=O)NCC(=O)N[C@@H](CC(=O)O)C(=O)N[C@@H](Cc1ccc(O)cc1)C(=O)N[C@@H](Cc1c[nH]c2ccccc12)C(=O)N[C@@H](Cc1c[nH]c2ccccc12)C(=O)N[C@H](C(=O)N1CCC[C@H]1C(=O)N[C@H](C(N)=O)[C@@H](C)CC)C(C)C)C(C)C [ZAP.09, IVGGDYWWVPI] (H-IVGGDYWWVPI-NH2; N-terminus assumed) |  |  |  | AC50 (scHGF β): 42 µM |
| I V D D Y P W W M D V (IVDDYPWWMDV) [IVDD.14] |  | no detectable binding |  |  |
| CC[C@H](C)[C@H](N)C(=O)N[C@H](C(=O)NCC(=O)NCC(=O)N[C@@H](CC(=O)O)C(=O)N1CCC[C@H]1C(=O)N[C@@H](Cc1ccc(O)cc1)C(=O)N[C@@H](Cc1c[nH]c2ccccc12)C(=O)N[C@H](C(=O)N1CCC[C@H]1C(=O)N[C@@H](Cc1c[nH]cn1)C(=O)N1CCC[C@H]1C(=O)NCC(=O)N[C@@H](CC(=O)O)C(=O)N[C@@H](C)C(N)=O)C(C)C)[C@@H](C)CC [ZAP.01, I I G G D P Y W V P H P G D A] (H-IIGGDPYWVPHPGDA-NH2; N-terminus assumed) | 6 ± 1 |  |  | EC50 of scHGF activation, order of magnitude in words (scHGF; Bx-PC3 cell survival, dose-titrations): micromolar |
| G V G G Y P W W M D V (GVGGYPWWMDV) [GVGG.14] |  | lack of activity; also recorded: completely abolished activity | no detectable activity |  |
| CC[C@H](C)[C@H](N)C(=O)N[C@H](C(=O)N[C@@H](CC(=O)O)C(=O)NCC(=O)N[C@@H](Cc1ccc(O)cc1)C(=O)N1CCC[C@H]1C(=O)N[C@@H](Cc1c[nH]c2ccccc12)C(=O)N[C@@H](Cc1c[nH]c2ccccc12)C(=O)N[C@@H](CCSC)C(=O)N[C@@H](CC(=O)O)C(=O)N[C@H](C(N)=O)C(C)C)C(C)C [IVDG.14, I V D G Y P W W M D V] (H-IVDGYPWWMDV-NH2; N-terminus assumed) |  |  | partial scHGF signaling activity |  |
